From ChEMBL document CHEMBL3885881, “DrugMatrix”

Species on record: Rattus norvegicus
Assay: DrugMatrix - Regimen: Daily Repeat
Format: toxicity, organism-based, Sprague-Dawley
Design: regimen Daily Repeat, gender Male, age 6-8 weeks
Details: in vivo, ip, 50 mg/kg, route intraperitoneal, dose level High, […]; for ABSOLUTE BASOPHIL / ABSOLUTE EOSINOPHIL / ABSOLUTE LYMPHOCYTE / ABSOLUTE MONOCYTE / ABSOLUTE SEGMENTED NEUTROPHIL / BASOPHIL / EOSINOPHIL / ERYTHROCYTE COUNT / HEMATOCRIT / HEMOGLOBIN / LEUKOCYTE COUNT / LYMPHOCYTE / MEAN CORPUSCULAR HEMOGLOBIN / MEAN CORPUSCULAR HEMOGLOBIN CONCENTRATION / MEAN CORPUSCULAR VOLUME / MONOCYTE / NEUTROPHIL / NUCLEATED RED BLOOD CELLS / PLATELET COUNT: tissue Blood; for ALANINE AMINOTRANSFERASE / ALBUMIN / ALKALINE PHOSPHATASE / ASPARTATE AMINOTRANSFERASE / BLOOD UREA NITROGEN / CARBON DIOXIDE / CHLORIDE / CHOLESTEROL / CREATININE / GLUCOSE / LACTATE DEHYDROGENASE / LIPASE / PHOSPHORUS / POTASSIUM / SODIUM / TOTAL BILIRUBIN / TOTAL PROTEIN / URIC ACID: tissue Plasma

## ClC(Cl)=C(Cl)C(Cl)=C(Cl)Cl [HEXACHLOROBUTADIENE]
72 h, time 3 day
  ABSOLUTE BASOPHIL: 0 CELLS/uL
  ABSOLUTE EOSINOPHIL: 265.33 CELLS/uL
  ABSOLUTE LYMPHOCYTE: 14659.33 CELLS/uL
  ABSOLUTE MONOCYTE: 513.33 CELLS/uL
  ABSOLUTE SEGMENTED NEUTROPHIL: 2862 CELLS/uL
  BASOPHIL: 0%
  EOSINOPHIL: 1.33%
  ERYTHROCYTE COUNT: 6.15 x10E6/uL
  HEMATOCRIT: 36.87%
  HEMOGLOBIN: 13.3 G/DL
  LEUKOCYTE COUNT: 18.3 x10E3/uL
  LYMPHOCYTE: 80.67%
  MEAN CORPUSCULAR HEMOGLOBIN: 21.63 pg
  MEAN CORPUSCULAR HEMOGLOBIN CONCENTRATION: 36.1 G/DL
  MEAN CORPUSCULAR VOLUME: 60 fL
  MONOCYTE: 2.67%
  NEUTROPHIL: 15.33%
  NUCLEATED RED BLOOD CELLS: 0 /100WBC
  PLATELET COUNT: 1031 x10E3/uL
  ALANINE AMINOTRANSFERASE: 36.33 u/L
  ALBUMIN: 4.23 G/DL
  ALKALINE PHOSPHATASE: 328.33 u/L
  ASPARTATE AMINOTRANSFERASE: 101 u/L
  BLOOD UREA NITROGEN: 11.67 mg/dL
  CARBON DIOXIDE: 30.33 mmol/L
  CHLORIDE: 102 MEQ/L
  CHOLESTEROL: 84.67 mg/dL
  CREATININE: 0.16 mg/dL
  GLUCOSE: 173 mg/dL
  LACTATE DEHYDROGENASE: 166 u/L
  LIPASE: 9.67 u/L
  PHOSPHORUS: 11.6 mg/dL
  POTASSIUM: 6.25 MEQ/L
  SODIUM: 147.3 MEQ/L
  TOTAL BILIRUBIN: 0.13 mg/dL
  TOTAL PROTEIN: 6.3 G/DL
  URIC ACID: 2.6 mg/dL
120 h, time 5 day
  ABSOLUTE BASOPHIL: 0 CELLS/uL
  ABSOLUTE EOSINOPHIL: 230 CELLS/uL
  ABSOLUTE LYMPHOCYTE: 9645 CELLS/uL
  ABSOLUTE MONOCYTE: 302 CELLS/uL
  ABSOLUTE SEGMENTED NEUTROPHIL: 1323 CELLS/uL
  BASOPHIL: 0%
  EOSINOPHIL: 2%
  ERYTHROCYTE COUNT: 5.76 x10E6/uL
  HEMATOCRIT: 36.65%
  HEMOGLOBIN: 13.3 G/DL
  LEUKOCYTE COUNT: 11.5 x10E3/uL
  LYMPHOCYTE: 84.5%
  MEAN CORPUSCULAR HEMOGLOBIN: 23.1 pg
  MEAN CORPUSCULAR HEMOGLOBIN CONCENTRATION: 36.25 G/DL
  MEAN CORPUSCULAR VOLUME: 63.6 fL
  MONOCYTE: 2.5%
  NEUTROPHIL: 11%
  NUCLEATED RED BLOOD CELLS: 0 /100WBC
  PLATELET COUNT: 1216 x10E3/uL
  ALANINE AMINOTRANSFERASE: 39 u/L
  ALBUMIN: 4.3 G/DL
  ALKALINE PHOSPHATASE: 279.5 u/L
  ASPARTATE AMINOTRANSFERASE: 100.5 u/L
  BLOOD UREA NITROGEN: 11.5 mg/dL
  CARBON DIOXIDE: 32.5 mmol/L
  CHLORIDE: 101 MEQ/L
  CHOLESTEROL: 106 mg/dL
  CREATININE: 0.19 mg/dL
  GLUCOSE: 171.5 mg/dL
  LACTATE DEHYDROGENASE: 160.5 u/L
  LIPASE: 9.5 u/L
  PHOSPHORUS: 13.95 mg/dL
  POTASSIUM: 6 MEQ/L
  SODIUM: 147.1 MEQ/L
  TOTAL BILIRUBIN: 0.2 mg/dL
  TOTAL PROTEIN: 6.6 G/DL
  URIC ACID: 1.75 mg/dL
Time 14 day
  ABSOLUTE BASOPHIL: 0 CELLS/uL
  ABSOLUTE EOSINOPHIL: 146.4 CELLS/uL
  ABSOLUTE LYMPHOCYTE: 11678.6 CELLS/uL
  ABSOLUTE MONOCYTE: 306.2 CELLS/uL
  ABSOLUTE SEGMENTED NEUTROPHIL: 1488.8 CELLS/uL
  BASOPHIL: 0%
  EOSINOPHIL: 1.2%
  ERYTHROCYTE COUNT: 6.11 x10E6/uL
  HEMATOCRIT: 35.9%
  HEMOGLOBIN: 13.2 G/DL
  LEUKOCYTE COUNT: 13.62 x10E3/uL
  LYMPHOCYTE: 86.4%
  MEAN CORPUSCULAR HEMOGLOBIN: 21.6 pg
  MEAN CORPUSCULAR HEMOGLOBIN CONCENTRATION: 36.82 G/DL
  MEAN CORPUSCULAR VOLUME: 58.64 fL
  MONOCYTE: 2.2%
  NEUTROPHIL: 10.2%
  NUCLEATED RED BLOOD CELLS: 0 /100WBC
  PLATELET COUNT: 1058.6 x10E3/uL
  ALANINE AMINOTRANSFERASE: 31.2 u/L
  ALBUMIN: 4.2 G/DL
  ALKALINE PHOSPHATASE: 238.6 u/L
  ASPARTATE AMINOTRANSFERASE: 99.6 u/L
  BLOOD UREA NITROGEN: 13.8 mg/dL
  CARBON DIOXIDE: 30.8 mmol/L
  CHLORIDE: 102 MEQ/L
  CHOLESTEROL: 83.6 mg/dL
  CREATININE: 0.2 mg/dL
  GLUCOSE: 149.2 mg/dL
  LACTATE DEHYDROGENASE: 133.2 u/L
  LIPASE: 10.4 u/L
  PHOSPHORUS: 9.96 mg/dL
  POTASSIUM: 5.75 MEQ/L
  SODIUM: 145.2 MEQ/L
  TOTAL BILIRUBIN: 0.18 mg/dL
  TOTAL PROTEIN: 6.18 G/DL
  URIC ACID: 1 mg/dL
